# Experiment: Example 3: post liver transplant supplementation with glutathione methyl ester tablets, plasma glutathione monitored
# Assay type: in vivo
# Conditions: tablet t.i.d. containing 0.5 g, Normal Range 4.5
# Description: A person with primary biliary cirrhosis underwent liver transplant. In addition to routine post-surgery immuno-suppressive and nutritional therapies the patient received a glutathione-containing tablet t.i.d. containing 0.5 g glutathione methyl ester. The goal of the therapy was to normalize plasma and tissue glutathione status.
# Plasma glutathione concentration was monitored periodically; values for Week 1 and Week 12 are given below: […]
compound,measurement,setting,value
COC(=O)CNC(=O)[C@H](CS)NC(=O)CC[C@H](N)C(=O)O [glutathione methyl ester],Plasma Glutathione,"Week 1, person after liver transplant",1.2 µM
same,Plasma Glutathione,Week 12,3.9 µM

# Source: patent EP0501641A1, “L-2-oxothiazolidine-4-carboxylate and glutathion esters for the treatment of hepatic diseases” (CLINTEC NUTRITION COMPANY, priority 1991, dated 1992)
